For assay [1], the system named is PAIGB expression in ROS 17/2.8 cells. In words: Real time PCR of PAIGB expression in ROS 17/2.8 cells. In kind it is cell-based, rat. To be noted: for effect on PAIGB expression after 4 hours of treatment: estrogen 10 nM, tamoxifen 0.1 μM, BMP2 300 ng/ml, calcitonin 5 ng/ml. From the text: Applicants performed multiplex real time PCR (TaqMan) analysis on previously DNAsed samples using gene specific probe and primers and 18S ribosomal RNA probe and primer sets purchased from Applied Biosystem. (Foster City, Calif.) The samples were DNAsed according to the protocol provided by Ambion (DNA-free kit). TaqMan probe and primers for PAIGB was identify using Primer Express computer program. The sequence for rat PAIGB TaqMan probe was 6FAM-5′[…] (SEQ ID NO: 16) forward and reverse primers were 5′[…] 3′ (SEQ ID NO:17) and 5′ […] 3′ (SEQ ID NO:18) respectively. The final concentrations for probes were 500 nM and 40 nM for PAIGB and 18S ribosomal RNA or GAPDH respectively. The concentrations of the primers were 500 nM for PAIGB forward and reversed primers while 18S primers were 10 and 20 nM for forward and reversed primer respectively or 40 nM for GAPDH primers. Standards for rat samples were made from rat tibia or brain RNA in the range of 250 ng to 0.1 ng, while standards for mouse specific TaqMan were made from mouse brain RNA and human standards from human brain RNA (Clonetech, Palo Alto, Calif.) spanning the same range of concentration. Primers and probes for mouse PAIGB were: forward 5′ […] 3′ (SEQ ID NO:19), reverse, 5′ […] (SEQ ID NO:21). Primers and probes for human PAIGB were: forward 5′ […] 3′ (SEQ ID NO:22), reverse 5′ […] 3′(SEQ ID NO: 24). The Taq-man analysis was done using ABI 7700 Sequence Detector under following conditions: 30 min at 48° C., 10 min at 95° C. and 40 cycles of 15 sec at 95° C. and 60 sec at 60° C. Analysis of real-time PCR analysis was performed using (Sequence Detector, Macintosh) program.
Five cell types were primarily used in our experiments. Rat osteoblast cell line (ROS 17/2.8) that expresses moderate levels of PTH receptor 1 (Rodan et al, Rev. Eukaryotic Gene Expression 1:85-98, 1991) were used to perform in vitro experiments. ROS cells were maintained under standard cell culture conditions: 10% heat inactivated FBS in Dulbecco's Modified Eagle Medium with Nutrient Mixture F-12 (DMEM/F12) media, 1% Penicillin/Streptomycin and 1% Glutamax. Mouse cell line C3H10T½ (ATCC# CCL226) as a representative of mouse osteoprogenitor cell line were maintained in Eagles Minimal Essential Media (EMEM) with the addition of 10% heat inactivated FBS and 1% Penicillin/Streptomycin and 1% Glutamax. UMR106 rat osteoblastic cells (ATCC# CRL1661) were cultured in Dulbecco's Modified Eagle Medium (DMEM) supplemented with 10% heat inactivated FBS, 1% Penicillin/Streptomycin and 1% Glutamax. The U2OS human osteoblastic cells (ATCC# HTB96) were cultured in McCoy's 5A Medium Modified supplemented with 10% FBS, 1% Penicillin/Streptomycin and 1% Glutamax. The human HOB-03-CE6 cell line (Bodine, V. N. P., et. al., J. Cell. Biochem., 65: 368-387,1997) was maintained in phenol red free DMEM/F12 media supplemented with 10% heat inactivated FBS and 1% Penicillin/Streptomycin and 1% Glutamax.
ROS 17/2.8 rat osteoblast cell line that express PTH receptor (˜80000 receptors/cell) were treated with increased doses of PTH: 1 nM, 10 nM, 100 nM and 1000 nM. Real time PCR using rat specific Taq-man probes and primers were used to examine the changes in PAIGB expression with PTH treatment.
Time course of PTH induction of PAIGB expression was examined. ROS 17/2.8_cells were treated with 10 nM PTH and RNA was harvested at 1, 2, 4, 6, 8 and 24 hours post treatment.

The test system of assay [2] is PAIGB expression in UMR106 cells. In words: Real time PCR of PAIGB expression in UMR106 cells. In kind it is cell-based, rat. From the text: Applicants performed multiplex real time PCR (TaqMan) analysis on previously DNAsed samples using gene specific probe and primers and 18S ribosomal RNA probe and primer sets purchased from Applied Biosystem. (Foster City, Calif.) The samples were DNAsed according to the protocol provided by Ambion (DNA-free kit). TaqMan probe and primers for PAIGB was identify using Primer Express computer program. The sequence for rat PAIGB TaqMan probe was 6FAM-5′[…] (SEQ ID NO: 16) forward and reverse primers were 5′[…] 3′ (SEQ ID NO:17) and 5′ […] 3′ (SEQ ID NO:18) respectively. The final concentrations for probes were 500 nM and 40 nM for PAIGB and 18S ribosomal RNA or GAPDH respectively. The concentrations of the primers were 500 nM for PAIGB forward and reversed primers while 18S primers were 10 and 20 nM for forward and reversed primer respectively or 40 nM for GAPDH primers. Standards for rat samples were made from rat tibia or brain RNA in the range of 250 ng to 0.1 ng, while standards for mouse specific TaqMan were made from mouse brain RNA and human standards from human brain RNA (Clonetech, Palo Alto, Calif.) spanning the same range of concentration. Primers and probes for mouse PAIGB were: forward 5′ […] 3′ (SEQ ID NO:19), reverse, 5′ […] 3′ (SEQ ID NO:20) anti-sense and probe 5′ 6FAM-[…] (SEQ ID NO:21). Primers and probes for human PAIGB were: forward 5′ […] 3′ (SEQ ID NO:22), reverse 5′ […] […]

As for `CCCCC[C@H](O)/C=C/[C@H]1[C@H](O)CC(=O)[C@@H]1C/C=C\CCCC(=O)O` [PGE2, prostaglandin E2], the “induction of PAIGB mRNA expression” value in assay [1] (two concentrations 10 nM and 10 μM, 4 hours) is “only at the lower dose”. As for `COc1ccc(C2CNC(=O)C2)cc1OC1CCCC1` (stereo not shown) [Rolipram], the PAIGB expression entry is given as “Increases” in assay [1] (ROS 17/2.8 cells, data not shown) and “Increases” in assay [2] (UMR 106 cells, data not shown). For `Nc1ncnc2c1ncn2C1CCCO1` (stereo not shown) [SQ 22536], in assay [1] (200 μM, 2 hours pretreatment, then 10 nM PTH 4 hours), the “blocking of the effect of PTH on PAIGB expression” value is recorded as “completely blocks”. With `C[C@@H]1C[C@H]2[C@@H]3CCC4=CC(=O)C=C[C@]4(C)[C@@]3(F)[C@@H](O)C[C@]2(C)[C@@]1(O)C(=O)CO` [dexamethasone], the “increase in PAIGB expression” value in assay [1] (100 nM, 4 hours) was 2-3 fold.

Regarding `CC(C)NCC(O)c1ccc(O)c(O)c1` (stereo not shown) [isoproterenol], the “increase in PAIGB expression” value in assay [1] (data not shown, concentration and cell line not restated) came to 2 fold.

With `CC/C(=C(\c1ccccc1)c1ccc(OCCN(C)C)cc1)c1ccccc1` [tamoxifen], the “effect on PAIGB expression after 4 hours of treatment” value in assay [1] (4 hours) is “did not have any effect”. As for `C=C1CC[C@H](O)C/C1=C/C=C1\CCC[C@]2(C)[C@@H]([C@H](C)CCCC(C)C)CC[C@@H]12` [vitamin D3], the “PAIGB expression in UMR106 cells” value in assay [2] (UMR106 cells) was “induced”. With “PKC inhibitor: Protein Kinase C inhibitor (PKC)19-27, an inhibitor of PKC signaling pathway (RFARKGALR; pseudosubstrate peptide; UniProt P17252 19-27, looked up, fragment)”, in assay [1] (10 μM, 2 hours pretreatment, then 10 nM PTH 4 hours), the “blocking of PTH induced PAIGB expression” value was “little to no effect”. Consider calcitonin, for which the “effect on PAIGB expression after 4 hours of treatment” value in assay [1] (4 hours) is reported as “did not have any effect”.
